Tested on: diarrhea-predominant IBS subjects
Assay: Study S241.3.011: weekly diary questions on adequate relief
Type: in vivo, human
Details: 2 mg TID, ITT; for Number of subjects who were responders during the three-month treatment period: Adequate relief of IBS symptoms / Number of subjects who were responders during the three-month treatment period: Adequate relief of abdominal pain/discomfort / Number of subjects who were responders during the three-month treatment period: Adequate relief of abnormal bowel habits: observed case
Method: Study S241.3.011 was a Phase III, double-blind, placebo-controlled, randomized, multinational study to investigate the safety and efficacy of 2 mg TID of cilansetron for a period of 12 weeks followed by a rerandomized, placebo-controlled four-week treatment period, in diarrhea-predominant IBS subjects. The study was conducted in six countries including the US. A total of 2115 subjects consented to participate, and 770 subjects were randomized. A total of 746 subjects were analyzed for efficacy and 755 subjects were analyzed for safety. Diagnosis and main criteria for inclusion were IBS subjects satisfying the Rome I criteria (1992); the diarrhea predominant sub-population of the Rome II criteria; and a minimum abdominal pain/discomfort, stool frequency and consistency determined during the run-in period. Subjects were treated with cilansetron 2 mg tablets given orally TID or matching placebo tablets given orally TID for 12 weeks followed by a rerandomized, placebo-controlled four-week treatment period.
The primary efficacy parameter was the number of months that a subject was a responder for IBS symptoms (abdominal pain, abdominal discomfort, abnormal bowel habits) over the 12-week treatment period. A responder for a month (monthly responder) was defined as a subject who answered the weekly question with “yes” at least twice for that month. The two main secondary efficacy parameters were the monthly responder rates based on the “adequate relief” questions regarding abdominal pain/discomfort and abnormal bowel habits during the 12-week treatment period. The overall response rate and responder rate for the weekly diary questions on adequate relief at each month and all months, the adequate relief rate, the number of subjects with adequate relief by week, daily diary questions, IBS-QOL scores, and the interruption of activities were also assessed. Safety was evaluated by physical examination, ECG, vital signs, laboratory evaluations, concomitant medications, and AEs.
Subjects who were initially randomized to the cilansetron 2 mg TID group and rerandomized to placebo, will be referred to as the C/P treatment group; subjects initially randomized to the placebo group and rerandomized to placebo will be referred to as the P/P treatment group; the P/C and C/C treatment group nomenclature follow the same principle. Of the 591 subjects who completed the three-month treatment period, 576 subjects were rerandomized and thus divided into the following treatment groups: 150 subjects in the C/C treatment group, 140 subjects in the C/P treatment group, 136 subjects in the P/C treatment group, and 150 subjects in the P/P treatment group. Of the 576 subjects rerandomized, a higher percentage of subjects in the C/C treatment group (99%) completed the study compared with the C/P (95%), P/C (93%), and the P/P (95%) treatment groups.
Studies S24 1.3.OO6, S24 1.3.0 1 1, and S24 1.3.009 used the following efficacy measurements: • The subjects answered the following three questions with “yes” or “no” using a phone diary at the end of each week: • a) During the last week, did you experience adequate relief of your IBS symptoms, such as abdominal pain, abdominal discomfort, abnormal bowel habits? • b) During the last week, did you experience adequate relief of your abdominal pain and/or discomfort? • c) During the last week, did you experience adequate relief of your abnormal bowel habits? • The subjects rated the following symptoms using the phone diary at the end of each day: • abdominal pain/discomfort (five-point scale); • stool consistency (seven-point Bristol Stool Scale); • stool frequency (number of bowel movements each day); • urgency (five-point scale); • straining (yes or no); • feeling of incomplete defecation (yes or no); • bloating or feeling of abdominal distension (five-point scale). • In Studies S241 A006 and S241.3.009, subjects completed the IBS-QOL Survey at Baseline (Day 1) and at the end of treatment. […]

[1] = Duration of IBS: >24 months to ≦48 months, monthly LOCF imputation
[2] = Duration of IBS: >24 months to ≦48 months
[3] = Duration of IBS: >48 months to ≦120 months, monthly LOCF imputation
[4] = Duration of IBS: >48 months to ≦120 months
[5] = Duration of IBS: >120 months, monthly LOCF imputation
[6] = Duration of IBS: ≦24 months, monthly LOCF imputation
[7] = Female subjects, three-month treatment period, monthly LOCF

## Cc1nccn1C[C@H]1CCc2c(c3cccc4c3n2CCC4)C1=O [Cilansetron, (R)-(−)-4,5,6,8,9,10-hexahydro-10-[(2-methyl-1H-imidazol-1-yl)methyl]-11H-pyrido-[3,2,1-jk]-carbazol-11-one]
[1]
  Number of months a subject was a responder during the three-month treatment period: Abnormal bowel habits, Two months: 10 (14) n (%)
  Number of months a subject was a responder during the three-month treatment period: Abnormal bowel habits, Zero months: 20 (28) n (%)
  Number of months a subject was a responder during the three-month treatment period: IBS symptoms, One month: 7 (10) n (%)
  Number of months a subject was a responder during the three-month treatment period: IBS symptoms, Three months: 32 (44) n (%)
  Number of months a subject was a responder during the three-month treatment period: IBS symptoms, Two months: 16 (22) n (%)
  Number of months a subject was a responder during the three-month treatment period: IBS symptoms, Zero months: 17 (24) n (%)
[2]
  Number of subjects who were responders during the three-month treatment period: Adequate relief of IBS symptoms: 44 (61) n (%)
  Number of subjects who were responders during the three-month treatment period: Adequate relief of abdominal pain/discomfort: 44 (61) n (%)
  Number of subjects who were responders during the three-month treatment period: Adequate relief of abnormal bowel habits: 43 (60) n (%)
[3]
  Number of months a subject was a responder during the three-month treatment period: Abdominal pain/discomfort, One month: 15 (11) n (%)
  Number of months a subject was a responder during the three-month treatment period: Abdominal pain/discomfort, Three months: 61 (46) n (%)
  Number of months a subject was a responder during the three-month treatment period: Abdominal pain/discomfort, Two months: 23 (17) n (%)
  Number of months a subject was a responder during the three-month treatment period: Abdominal pain/discomfort, Zero months: 34 (26) n (%)
  Number of months a subject was a responder during the three-month treatment period: Abnormal bowel habits, One month: 15 (11) n (%)
  Number of months a subject was a responder during the three-month treatment period: Abnormal bowel habits, Three months: 50 (38) n (%)
  Number of months a subject was a responder during the three-month treatment period: Abnormal bowel habits, Two months: 29 (22) n (%)
  Number of months a subject was a responder during the three-month treatment period: Abnormal bowel habits, Zero months: 39 (29) n (%)
  Number of months a subject was a responder during the three-month treatment period: IBS symptoms, One month: 19 (14) n (%)
  Number of months a subject was a responder during the three-month treatment period: IBS symptoms, Three months: 50 (38) n (%)
  Number of months a subject was a responder during the three-month treatment period: IBS symptoms, Two months: 26 (20) n (%)
  Number of months a subject was a responder during the three-month treatment period: IBS symptoms, Zero months: 38 (29) n (%)
[4]
  Number of subjects who were responders during the three-month treatment period: Adequate relief of IBS symptoms: 69 (52) n (%)
  Number of subjects who were responders during the three-month treatment period: Adequate relief of abdominal pain/discomfort: 79 (59) n (%)
  Number of subjects who were responders during the three-month treatment period: Adequate relief of abnormal bowel habits: 69 (52) n (%)
[5]
  Number of months a subject was a responder during the three-month treatment period: Abdominal paint/discomfort, One month: 13 (13) n (%)
  Number of months a subject was a responder during the three-month treatment period: Abdominal paint/discomfort, Three months: 39 (38) n (%)
  Number of months a subject was a responder during the three-month treatment period: Abdominal paint/discomfort, Two months: 18 (18) n (%)
  Number of months a subject was a responder during the three-month treatment period: Abdominal paint/discomfort, Zero months: 32 (31) n (%)
  Number of months a subject was a responder during the three-month treatment period: Abnormal bowel habits, One month: 17 (17) n (%)
  Number of months a subject was a responder during the three-month treatment period: Abnormal bowel habits, Three months: 37 (36) n (%)
  Number of months a subject was a responder during the three-month treatment period: Abnormal bowel habits, Two months: 12 (12) n (%)
  Number of months a subject was a responder during the three-month treatment period: Abnormal bowel habits, Zero months: 36 (35) n (%)
  Number of months a subject was a responder during the three-month treatment period: IBS symptoms, One month: 17 (17) n (%)
  Number of months a subject was a responder during the three-month treatment period: IBS symptoms, Three months: 38 (37) n (%)
  Number of months a subject was a responder during the three-month treatment period: IBS symptoms, Two months: 12 (12) n (%)
  Number of months a subject was a responder during the three-month treatment period: IBS symptoms, Zero months: 35 (34) n (%)
Duration of IBS: >120 months
  Number of subjects who were responders during the three-month treatment period: Adequate relief of IBS symptoms: 48 (47) n (%)
  Number of subjects who were responders during the three-month treatment period: Adequate relief of abdominal pain/discomfort: 55 (54) n (%)
  Number of subjects who were responders during the three-month treatment period: Adequate relief of abnormal bowel habits: 46 (45) n (%)
[6]
  Number of months a subject was a responder during the three-month treatment period: Abdominal pain/discomfort, One month: 7 (10) n (%)
  Number of months a subject was a responder during the three-month treatment period: Abdominal pain/discomfort, Three months: 27 (39) n (%)
  Number of months a subject was a responder during the three-month treatment period: Abdominal pain/discomfort, Two months: 16 (23) n (%)
  Number of months a subject was a responder during the three-month treatment period: Abdominal pain/discomfort, Zero months: 20 (29) n (%)
  Number of months a subject was a responder during the three-month treatment period: Abnormal bowel habits, One month: 8 (11) n (%)
  Number of months a subject was a responder during the three-month treatment period: Abnormal bowel habits, Three months: 30 (43) n (%)
  Number of months a subject was a responder during the three-month treatment period: Abnormal bowel habits, Two months: 15 (21) n (%)
  Number of months a subject was a responder during the three-month treatment period: Abnormal bowel habits, Zero months: 17 (24) n (%)
  Number of months a subject was a responder during the three-month treatment period: IBS symptoms, One month: 11 (16) n (%)
  Number of months a subject was a responder during the three-month treatment period: IBS symptoms, Three months: 28 (40) n (%)
  Number of months a subject was a responder during the three-month treatment period: IBS symptoms, Two months: 16 (23) n (%)
  Number of months a subject was a responder during the three-month treatment period: IBS symptoms, Zero months: 15 (21) n (%)
Duration of IBS: ≦24 months
  Number of subjects who were responders during the three-month treatment period: Adequate relief of IBS symptoms: 45 (64) n (%)
  Number of subjects who were responders during the three-month treatment period: Adequate relief of abdominal pain/discomfort: 43 (61) n (%)
  Number of subjects who were responders during the three-month treatment period: Adequate relief of abnormal bowel habits: 45 (64) n (%)
[7]
  Number of months a subject was a responder: One month (Abdominal pain/discomfort): 30 (11) n (%)
  Number of months a subject was a responder: One month (Abnormal bowel habits): 34 (13) n (%)
  Number of months a subject was a responder: One month (IBS symptoms): 35 (13) n (%)
  Number of months a subject was a responder: Three months (Abdominal pain/discomfort): 101 (39) n (%)

Source: patent publication US20090176817A1, “Method of Treatment of Diarrhea-Predominant Irritable Bowel Syndrome in a Subject” (priority 2005, published 2009)
